Laboratory results from patent publication US20110105380A1, “Protection of Nano-Scale Particles from Immune Cell Uptake” (THE TRUSTEES OF THE UNIVERSITY OF PENNSYLVANIA, priority 2009, published 2011).

Tests used:
[1] = test system: THP-1 macrophages; test: Phagocytosis of IgG-opsonized streptavidin beads with or without hCD47 by THP-1 macrophages; assay type: cell-based, human
Procedure: The extracellular immunoglobulin-like domains of human CD47 (hCD47) was recombinantly expressed with a spacer domain (Brown et al., 1994, Protein Eng. 7:515-21; Brown et al., 1998, J. Exp. Med. 188:2083-90) plus a C-terminal biotinylation site. […] The beads were opsonized by pretreatment with anti-streptavidin to again induce FcR-mediated phagocytosis (for 45 minutes at 37° C.), and non-engulfed beads were detected with a flourescein anti-Fc against the IgG-opsonin. The number of adherent IgG-opsonized beads per phagocyte was independent of hCD47 (not shown).
For phagocytosis assays, macrophages were plated in 4 cm^2, or 2 cm^2 Lab-Tek II Chambered Coverglass (Nalge Nunc International, Naperville, Ill.) at 1.5×10^5/cm^2. Streptavidin polystyrene beads of different radius: 3.5 μm, 1.1 μm, 160 nm (Spherotech) and 100 nm (Ademtech) were added to macrophages at a ratio of 2:1, 20:1, 277:1, and 2206:1 respectively and incubate at 37° C. for 45 min. […] Non-phagocytosed beads were washed with PBS. Cells were fixed with 5% formaldehyde (Fisher Scientific) for 5 minutes, followed by immediate replacement with PBS. For differentiation of non-internalized beads, beads were labeled with a primary antibody, rabbit anti-streptavidin (Sigma) at 1:1000 in PBS for 20 min at 25° C. A second antibody, anti-rabbit R-PE (Sigma) was added at 1:1000 in PBS to the cells and incubated for an additional 20 minutes at 25° C. Cells were then washed with PBS/0.4% BSA and then quantified by light and fluorescent microscopy. At least 200 cells were scored per well and experiments were repeated at least three times.
For stimulated phagocytosis assays, beads with or without CD47 were incubated with rabbit anti-streptavidin as the IgG opsonin. Beads were opsonized at a concentration 1:1000 for 30 min at 25° C. Opsonized beads were washed 2× and resuspended in 50 μl of PBS/0.4% BSA. Phagocytes were washed with PBS and uningested beads were labeled as described above.
For cytoskeletal involvement at the phagocytic synapse, streptavidin beads opsonized with rabbit anti-streptavidin FITC. Opsonized beads of different sizes were added to THP-1 cells, PMA treated and immediately placed at 4° C. for 10 min to synchronize phagocytosis. […] For studies involving blebbistatin (EMD Biosciences), macrophages were treated for 10 min at 4° C. prior to temperature increase to 37° C. or for 45 min and 37° C. Macrophages treated with DMSO were used to verify no solvent effects.
Beads were opsonized at saturating densities of IgG, and over a 20-fold range of CD47 densities, the number of internalized beads per THP-1 was measured. […] The normal level of CD47 density found on human RBC (Subramanian et al., 2006, Blood 107(6):2548-2556) was indicated by the vertical bars and humans with certain Rhnull phenotypes with reduced levels of CD47 (Mouro-Chanteloup et al., 2003, Blood 101 (1):338-344; Arndt et al., 2004, Br. J. Haematol. 125(3):412-4) was indicated by the vertical bars. The minimum number of CD47 inhibition appears to be consistent across a 30-fold particle size range as depicted by the vertical bars.

[2] = test system: non-muscle myosin IIA at the phagocytic synapse of THP-1 macrophages; test: Protein localization to the phagocytic synapse (immunofluorescence); assay type: cell-based, human; conditions: blebbistatin 50 μM, 10 min pre-incubation
Procedure: FIG. 4, comprising FIGS. 4A-4B, illustrates CD47 inhibiting myosin localization as similar to blebbistatin. Phagocytic synapses of THP-1 macrophages with IgG-opsonized sheep- or human-RBC (37° C., 10 min) after pre-incubation with blebbistatin (50 μM, 10 min). DMSO was used as a control. FIG. 4A depicts cells fixed and immunostained for non-muscle myosin IIA, F-actin, and Paxillin-Y^118. The scale bars are […]. FIG. 4B depicts quantitation of protein localization to the phagocytic synapse relative to the cytoplasmic intensity set at 1.0 (n=5 cells, ±SD). For cytoskeletal involvement at the phagocytic synapse, streptavidin beads opsonized with rabbit anti-streptavidin FITC. Opsonized beads of different sizes were added to THP-1 cells, PMA treated and immediately placed at 4° C. for 10 min to synchronize phagocytosis. […] For studies involving blebbistatin (EMD Biosciences), macrophages were treated for 10 min at 4° C. prior to temperature increase to 37° C. or for 45 min and 37° C. Macrophages treated with DMSO were used to verify no solvent effects. Immunostaining was performed by permeabilization with 0.1% Triton X-100 in PBS for 20 min before blocking for 1 h with 5% BSA in PBS. Staining with primary antibodies was carried out for 1 h at room temperature in PBS. […] Samples were analyzed by differential interference contrast (DIC) and fluorescence microscopy. […]

Cc1ccc2c(c1)C(=O)C1(O)CCN(c3ccccc3)C1=N2 (stereo not shown) [blebbistatin]
uptake of 100 nm IgG-opsonized particles ([1]; THP-1 treated with 50 μM blebbistatin vs DMSO): decrease in uptake
phagocytosis of CD47-null beads ([1]; blebbistatin 50 μM, 10 min pretreatment of THP-1): inhibited phagocytosis of CD47-null beads to a level similar as hCD47 beads
uptake of 1.1 μm IgG-opsonized particles ([1]; blebbistatin treatment, FIG. 16D): comparable results
enrichment of NMM IIA at synaptic contacts with sheep RBC targets [2]: inhibited enrichment of NMM IIA
